The values that follow come from article PMC6754133 (PLoS ONE, 2019).

A word on the IC50: it is the concentration needed to halve the response being measured. As usually defined, the inhibition is the percentage by which the read-out fell short of the control. For orientation: Cmax means the highest concentration seen after dosing.

Data set [1] addresses Carbonic anhydrase 1 (CAH1_HUMAN). The conditions noted are these: S2/S3 Table; ref [2] Parkkila S et al., Bioorg Med Chem Lett. 2009; cited from earlier work.
Data set [2] concerns the target Carbonic anhydrase 9 (CAH9_HUMAN). Conditions: S2/S3 Table; ref [2] Parkkila S et al., Bioorg Med Chem Lett. 2009; cited from earlier work.
The target of the next data set is T1, mSMO (Mus musculus, UniProt P56726).
T1 construct: host or cells: HEK293T
T1 sequence (P56726 33-793): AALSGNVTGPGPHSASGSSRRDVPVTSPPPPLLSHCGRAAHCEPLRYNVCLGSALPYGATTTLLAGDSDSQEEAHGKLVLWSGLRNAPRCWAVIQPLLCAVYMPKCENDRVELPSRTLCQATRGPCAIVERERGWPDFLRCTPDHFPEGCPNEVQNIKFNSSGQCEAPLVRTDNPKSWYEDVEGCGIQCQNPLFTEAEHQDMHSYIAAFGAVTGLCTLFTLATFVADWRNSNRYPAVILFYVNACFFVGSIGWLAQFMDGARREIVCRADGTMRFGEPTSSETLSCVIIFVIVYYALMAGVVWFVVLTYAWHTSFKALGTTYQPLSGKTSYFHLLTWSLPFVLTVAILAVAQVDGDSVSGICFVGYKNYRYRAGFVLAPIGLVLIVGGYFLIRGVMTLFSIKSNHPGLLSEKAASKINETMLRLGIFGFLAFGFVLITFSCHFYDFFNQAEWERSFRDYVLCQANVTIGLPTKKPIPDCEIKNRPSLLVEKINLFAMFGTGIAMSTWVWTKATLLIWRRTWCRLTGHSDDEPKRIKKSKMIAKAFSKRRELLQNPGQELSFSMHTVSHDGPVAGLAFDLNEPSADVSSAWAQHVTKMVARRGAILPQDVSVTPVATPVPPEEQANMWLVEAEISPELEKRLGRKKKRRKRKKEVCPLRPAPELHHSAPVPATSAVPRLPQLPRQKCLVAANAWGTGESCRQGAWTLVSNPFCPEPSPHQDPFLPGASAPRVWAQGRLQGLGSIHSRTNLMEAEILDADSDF
The data set can be described thus: BODIPY-Cyclopamine competition binding assay, flow cytometry, HEK293T cells transiently transfected with mSMO. The conditions noted are these: BODIPY-Cyclopamine 5 nM. As to the method: Prior to transfection, cell culture media was replaced with DMEM + 10%FBS for mSMO transfection and with DMEM + 10%BCS for ShhN transfection. The transfected dish was incubated for approximately 24 hours at 37°C. For the production of ShhN conditioned medium, the culture medium from ShhN-transfected HEK293T cells was collected, aliquoted in single use 1.5 mL Eppendorf tubes and either used fresh or stored at -20°C.
HEK293T cells transiently transfected with mSMO were lifted with trypsin (0.25%) and replated at 6×10^4 cells in 80 μL DMEM + 10%FBS per well in a 96 well tissue-culture treated plate (Falcon, 353219). The plate was incubated at 37°C for 24 hours. Serial dilutions of test compounds (10x final concentrations) were prepared in culture media. 10 μL of diluted compounds or control media were added to the plate after which the plate was incubated at 37°C for 10 min. […] Following at least 1.5 hours incubation at 37°C in 5% CO2, cells were lifted by vigorous pipetting, transferred to conical bottom 96-well plates, and centrifuged at 400 × g for 5 min at 4°C. Supernatant was discarded, cells were re-suspended in 300 μL of PBS + 0.5% BSA (freshly prepared), and the plate was analyzed with Guava benchtop flow cytometer. The results were interpreted with FlowJo software (version v10.1). Dose response curves were constructed in Prism 6 (GraphPad Software, La Jolla, CA).
A general note: Flow cytometry measures light scatter and fluorescence of single cells or particles in a stream.

The test system of data set [3] is Gli-target genes in MB-PDX cells. The data set can be described thus: qRT-PCR of Gli-target genes in MB-PDX cells in vitro. Conditions: 10 uM in-vitro, 24 hours. Type of data set: cell-based, human. The source says: The results from three independent replicates were used for quantitative analysis and are represented in Fig 7c.
Y-axes show the relative expression levels of mRNA of target genes with respect to mRNA of GAPDH gene.

In data set [4] the test system is DAOY cells. The data set can be described thus: Neurosphere formation assay. Type of data set: cell-based, human. Conditions: Homo sapiens, Daoy, 168 h, read-out: Inhibition of NS formation, wells.
Procedure: The final concentration of test compounds in the wells was 10 μM. Cells were incubated at 37 °C for at least seven days. After incubation percent of wells positive with neural stem cell-derived sphere colonies were calculated for each test condition and compared.
The conditions of data set [5]: cited from earlier work.
Data set [6] has as its system DAOY cells. As to the kind of experiment: cells. Conditions: Homo sapiens, 72 h, read-out: Cell viability assay IC50.
Data set [7] has as its system Platelet-derived growth factor receptor alpha (PGFRA_HUMAN). Further details: method as in earlier work. The conditions noted are these: S2/S3 Table; ref [1] Davis MI et al., Nat Biotechnol. 2011; cited from earlier work.
Data set [8] concerns Platelet-derived growth factor receptor beta (PGFRB_HUMAN). Further details: method as in earlier work. The conditions noted are these: S2/S3 Table; ref [1] Davis MI et al., Nat Biotechnol. 2011; cited from earlier work.
A further data set deals with Gli-1 mRNA. As to the kind of experiment: qRT-PCR of Gli-1 mRNA in MB-PDX xenograft tumors. Type of data set: in vivo, mouse. A general note: Quantitative PCR measures a nucleic acid by following its amplification.

Where only a bound is given, the exact number is not on record here.

Procedure for Gli-1 mRNA: NSG mice, 4–6 weeks old, were injected subcutaneously at shoulders and flanks with 1 × 10^6 viable MB-PDX cells in 1:1 HBSS and gelatinous protein mixture Matrigel. […] The tumor size was measured three times a week with a caliper, and tumor volumes were calculated according to the formula (length × width × width × 0.5). At day 42 post-grafting, all mice were euthanized by isoflurane inhalation and cervical dislocation. Tumors were harvested and stored for qRT-PCR analysis.
Both post-vivo MB-PDX cells and Math1-Cre; ptch1-flox/flox cells were analyzed for Gli-1 mRNA expression. For that, total RNA was extracted from dissociated single cells using QIAGEN RNease Mini Kit and cDNA was prepared using 1μg RNA with iScript cDNA Synthesis Kit (Bio-Rad). SYBR green-based QPCR was performed using murine primers listed as below (GLI1, Forward 5’- [sequence]-3’, Reverse 5’-[sequence]-3’, GAPDH Forward 5'-[sequence] -3', Reverse 5'-[sequence]-3'). mRNA levels were normalized to GAPDH (dCt = Ct gene of interest–Ct GAPDH) and reported as relative mRNA expression (ddCt = 2-^(dCt sample–dCt control)) in fold change.

Turning to `Cc1cn(-c2cc(NC(=O)c3ccc(C)c(Nc4nccc(-c5cccnc5)n4)c3)cc(C(F)(F)F)c2)cn1` [Nilotinib], the “Kd/Ki Value” in data set [1] is 29.3 nM; in data set [2], 41.9 nM; in data set [7] it was 180 nM; in data set [8], 73 nM. Moreover, the “Displacement of BODIPY-Cyclopamine from SMO (in words)” value at mSMO is recorded as “displace BODIPY-Cyclopamine”. For the same molecule, the IC50 was 3110 nM at mSMO (HEK293T cells transfected with mSMO, n = 2, estimated, read-out: SMO binding IC50) and 6000 nM in the data set with DAOY cells [6]. The “mRNA expression of Gli-target genes” value in data set [3] was “decreased expression of GLI1, NMYC, HHIP and BCL2 genes”. Also, in the data set with DAOY cells [4], the inhibition at 10 µM was over 90%. The “Trough concentration, Cmin” value in [5] (clinically achievable concentrations) is 1600 to 2600 nM. For the same molecule, the “Average Cmin” value in [5] (human plasma) is 2600 nM. Besides, the Cmax in [5] (human plasma) is 3300 nM. The “Trough concentration (Cmin) in human plasma” value in data set [5] (standard dosing of 400 mg twice daily) is 1650 to 2380 nM. In addition, in the data set on Gli-1 mRNA, the “Gli-1 mRNA expression in tumors versus vehicle” value is recorded as “significant reduction in the Gli-1 mRNA expression levels”.
